Assay results: patent publication US20210356447A1, “EFFICACY EVALUATION METHOD OF DRUG FOR REVERSING TUMOR MULTIDRUG RESISTANCE” (JINAN UNIVERSITY, priority 2018, published 2021)

Tested on: Liver cancer HepG2/ADR tumor-transplanted nude mouse model
Assay: Callback rate of serum and urine metabolic markers (targeted metabonomics, LC-MS/MS) in drug-resistant liver cancer nude mouse model
Type: in vivo, nude mice (nu/nu-BALB/c)
[1] = serum metabolic marker, 3 mg/kg, 0.2 ml tail vein injection once every three days, seven times, HepG2/ADR nude mice
[2] = urine metabolic marker, 3 mg/kg, 0.2 ml tail vein injection once every three days, seven times, HepG2/ADR nude mice

Experimental: Liver cancer HepG2/ADR tumor-transplanted nude mouse models were firstly established and divided into four groups with 30 mice in each group, and after one week of successful establishment of the model, the mice were administered in different methods:
Metabolic markers were quantified by a targeted metabonomics technology, and an efficacy of a drug for reversing tumor multidrug resistance to be evaluated was evaluated by a concentration of each metabolic marker.
Cell transplanting: ten nude mice without thymus, including five male mice and five female mice, were selected, after 10-day adaptation period, 0.2 ml of HepG2/ADR cells (cell concentration: 6×10^7 cells/ml) were subcutaneously injected into each nude mouse with a 23G sterile needle, and in order to prevent tumor cells from being destroyed and matrix gel from being solidified in the period, the injection should be completed as soon as possible. Before injection, the needle was shaken left and right to form an expanded subcutaneous cyst (because if the injection was performed to a specific area by not shaking the needle, the mixture could form a large cell mass, and ineffective perfusion of nutrients in a core of the mass into the cells could result in subsequent growth defects), and when the needle was taken out, the injector was rotated to prevent leakage of cell sap. After subcutaneous injection, the matrix gel was irreversibly solidified to form a red bulge, about 10 days later, the solidified matrix gel was eliminated, and the tumor cells were successfully inoculated, and after a tumor mass grew for three weeks, nude mice with the tumor of the same size (about 7 mm in diameter) were selected. The subcutaneous tumor mass was taken out, a peripheral part of the tumor mass was divided into small tumor masses of 2×2×2 mm, after the nude mice (nu/nu-BALB/c, half male nude mice and half female nude mice at six weeks old, n=30) were anesthetized with isoflurane, the small tumor masses were subcutaneously implanted into shoulders of the nude mice to make the tumor masses of liver cancer model mice similar in size and shape, thus reducing experimental errors caused by different tumor mass sizes. After successful transplantation, growth statuses of the model nude mice were observed and recorded every day, weights of the nude mice were recorded every two days, and tumor sizes (length and width) were measured with a vernier caliper.
Healthy group: only normal saline was administrated to 30 healthy nude mice without being inoculated with any tumor cells once every three days for a total of seven times, with a dose of 0.2 ml each time by an administration method of tail vein injection.
Negative control group: only normal saline was administrated to 30 liver cancer HepG2/ADR tumor-transplanted nude mouse models once every three days for a total of seven times, with a dose of 0.2 ml each time by an administration method of tail vein injection.
Mass spectra of standard substances of a-linolenic acid, 3-methylglutaric acid, 17-hydroxystearic acid, xanthurenic acid, indole-2-carboxylic acid and 3-furoic acid were measured to determine mass-spectrometric detection conditions of each metabolic marker.
A series of linear concentration samples of the standard substance of each metabolic marker were respectively measured using the detection conditions above to obtain a relationship between a peak area of a characteristic fragment particle peak and a concentration of each metabolic marker, and linear regression was performed to obtain a linear regression equation.

O=c1ccc2cc3ccoc3cc2o1 [psoralen]
effect of reversing tumor drug resistance, judged from the callback rates (result in words, comparison of groups in HepG2/ADR nude mice): really has the effect of reversing tumor drug resistance

COc1cccc2c1C(=O)c1c(O)c3c(c(O)c1C2=O)C[C@@](O)(C(=O)CO)C[C@@H]3O[C@H]1C[C@H](N)[C@H](O)[C@H](C)O1 [Positive control group, doxorubicin]
Callback rate, 3-methylglutaric acid [1]: 13.69% | Callback rate, A-linolenic acid [1]: 17.56% | Callback rate, 3-furoic acid [2]: 12.30% | Callback rate, Xanthurenic acid [2]: 19.08% | Callback rate, indole-2-carboxylic acid [2]: 12.73%
